Laboratory results: ChEMBL document CHEMBL5352488, “Development of novel S-N3-DABO derivatives as potent non-nucleoside reverse transcriptase inhibitors with improved potency and selectivity” (Eur J Med Chem, 2023)

What was measured:
[1] = tested on: Human immunodeficiency virus 1; assay: Anti-HIV activity against drug resistant HIV-1 harboring F227L/V106A mutant infected in human MT4 cells assessed as inhibition of virus-induced cytopathic effect by MTT assay; type: functional, organism-based; details: Human immunodeficiency virus 1, MT4
[2] = molecular target: Human immunodeficiency virus type 1 reverse transcriptase (Human immunodeficiency virus 1, UniProt Q72547); assay: Inhibition of wild type HIV-1 reverse transcriptase assessed as assessed as inhibition of biotin deoxyuridine triphosphate incorporation into […]
[3] = molecular target: T1, Cytochrome P450 3A4 (Homo sapiens, UniProt P08684); assay: Inhibition of CYP3A4T in human liver microsomes using testosterone as substrate measured after 10 mins in presence of NADPH; type: ADME, Microsome
[4] = tested on: Human immunodeficiency virus 1; assay: Anti-HIV activity against drug resistant HIV-1 harboring E138K mutant infected in human MT4 cells assessed as inhibition of virus-induced cytopathic effect by MTT assay; type: functional, organism-based; details: Human immunodeficiency virus 1, MT4
[5] = molecular target: Cytochrome P450 2C19 (Homo sapiens, UniProt P33261); assay: Inhibition of CYP2C19 in human liver microsomes using mephenytoin as substrate measured after 10 mins in presence of NADPH; type: ADME, Microsome
[6] = tested on: Human immunodeficiency virus 1; assay: Anti-HIV activity against drug resistant HIV-1 harboring K103N mutant infected in human MT4 cells assessed as inhibition of virus-induced cytopathic effect by MTT assay; type: functional, organism-based; details: Human immunodeficiency virus 1, MT4
[7] = molecular target: T1, Cytochrome P450 3A4; assay: Inhibition of CYP3A4M in human liver microsomes using midazolam as substrate measured after 10 mins in presence of NADPH; type: ADME, Microsome
[8] = Acute toxicity in mouse assessed as histopathological changes in kidney at 1000 mg/kg, po by Hematoxylin and eosin staining based microscopy; type: organism-based; details: in vivo
[9] = Acute toxicity in mouse assessed as histopathological changes in brain at 1000 mg/kg, po by Hematoxylin and eosin staining based microscopy; type: organism-based; details: in vivo
[10] = tested on: Human immunodeficiency virus 1; assay: Anti-HIV activity against wild type HIV-1 IIIB infected in human MT4 cells assessed as inhibition of virus-induced cytopathic effect by MTT assay; type: functional, organism-based; details: Human immunodeficiency virus 1, IIIB
[11] = molecular target: Cytochrome P450 2C9 (Homo sapiens, UniProt P11712); assay: Inhibition of CYP2C9 in human liver microsomes using tolbutamide as substrate measured after 10 mins in presence of NADPH; type: ADME, Microsome
[12] = molecular target: Cytochrome P450 2D6 (Homo sapiens, UniProt P10635); assay: Inhibition of CYP2D6 in human liver microsomes using dextromethorphan as substrate measured after 10 mins in presence of NADPH; type: ADME, Microsome
[13] = Acute toxicity in mouse assessed as histopathological changes in heart at 1000 mg/kg, po by Hematoxylin and eosin staining based microscopy; type: organism-based; details: in vivo
[14] = tested on: Human immunodeficiency virus 1; assay: Anti-HIV activity against drug resistant HIV-1 harboring L100I mutant infected in human MT4 cells assessed as inhibition of virus-induced cytopathic effect by MTT assay; type: functional, organism-based; details: Human immunodeficiency virus 1, MT4
[15] = Acute toxicity in mouse assessed as histopathological changes in spleen at 1000 mg/kg, po by Hematoxylin and eosin staining based microscopy; type: organism-based; details: in vivo
[16] = Acute toxicity in mouse assessed as histopathological changes in liver at 1000 mg/kg, po by Hematoxylin and eosin staining based microscopy; type: organism-based; details: in vivo
[17] = Acute toxicity in mouse assessed as histopathological changes in lung at 1000 mg/kg, po by Hematoxylin and eosin staining based microscopy; type: organism-based; details: in vivo
[18] = molecular target: T2, Cytochrome P450 1A2 (Homo sapiens, UniProt P05177); assay: Inhibition of CYP1A2 in human liver microsomes using phenacetin as substrate measured after 10 mins in presence of NADPH; type: ADME, Microsome
T2 sequence (P05177 whole entry): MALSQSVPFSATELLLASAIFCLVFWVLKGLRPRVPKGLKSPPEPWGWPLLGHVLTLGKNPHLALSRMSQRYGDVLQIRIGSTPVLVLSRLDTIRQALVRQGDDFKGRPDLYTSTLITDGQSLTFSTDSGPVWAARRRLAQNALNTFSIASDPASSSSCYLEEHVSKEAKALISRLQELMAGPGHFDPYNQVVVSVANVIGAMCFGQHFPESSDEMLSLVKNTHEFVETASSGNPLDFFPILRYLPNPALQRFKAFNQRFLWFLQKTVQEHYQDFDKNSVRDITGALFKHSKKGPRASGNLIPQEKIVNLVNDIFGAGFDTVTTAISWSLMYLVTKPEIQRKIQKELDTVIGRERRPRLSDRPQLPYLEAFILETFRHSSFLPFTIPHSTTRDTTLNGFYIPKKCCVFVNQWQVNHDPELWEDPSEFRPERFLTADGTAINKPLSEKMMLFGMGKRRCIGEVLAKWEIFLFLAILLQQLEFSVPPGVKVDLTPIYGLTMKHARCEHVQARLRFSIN

[19] = Selectivity index, ratio of CC50 for cytotoxicity against human MT4 cells assessed as reduction in cell viability by MTT assay to EC50 for anti-HIV activity against wild type HIV-1 IIIB infected in human MT4 cells assessed as inhibition of virus-induced cytopathic effect by MTT assay; type: toxicity, cell-based; details: read-out: Ratio CC50/EC50
[20] = tested on: Human immunodeficiency virus 1; assay: Anti-HIV activity against drug resistant HIV-1 harboring Y188L mutant infected in human MT4 cells assessed as inhibition of virus-induced cytopathic effect by MTT assay; type: functional, organism-based; details: Human immunodeficiency virus 1, MT4
[21] = molecular target: hERG (KCNH2) (Homo sapiens, UniProt Q12809); assay: Inhibition of human ERG expressed in CHO cells at 40 uM by automated patch-clamp electrophysiological assay; type: toxicity, cell-based; details: CHO cells that express hERG
[22] = Cytotoxicity against human MT4 cells assessed as reduction in cell viability by MTT assay; type: toxicity, cell-based
[23] = Acute toxicity in mouse assessed as change in body weight at 1000 mg/kg, po; type: organism-based; details: in vivo
[24] = tested on: Human immunodeficiency virus 1; assay: Anti-HIV activity against drug resistant HIV-1 harboring Y181C mutant infected in human MT4 cells assessed as inhibition of virus-induced cytopathic effect by MTT assay; type: functional, organism-based; details: Human immunodeficiency virus 1, MT4

T1 sequence (P08684 whole entry): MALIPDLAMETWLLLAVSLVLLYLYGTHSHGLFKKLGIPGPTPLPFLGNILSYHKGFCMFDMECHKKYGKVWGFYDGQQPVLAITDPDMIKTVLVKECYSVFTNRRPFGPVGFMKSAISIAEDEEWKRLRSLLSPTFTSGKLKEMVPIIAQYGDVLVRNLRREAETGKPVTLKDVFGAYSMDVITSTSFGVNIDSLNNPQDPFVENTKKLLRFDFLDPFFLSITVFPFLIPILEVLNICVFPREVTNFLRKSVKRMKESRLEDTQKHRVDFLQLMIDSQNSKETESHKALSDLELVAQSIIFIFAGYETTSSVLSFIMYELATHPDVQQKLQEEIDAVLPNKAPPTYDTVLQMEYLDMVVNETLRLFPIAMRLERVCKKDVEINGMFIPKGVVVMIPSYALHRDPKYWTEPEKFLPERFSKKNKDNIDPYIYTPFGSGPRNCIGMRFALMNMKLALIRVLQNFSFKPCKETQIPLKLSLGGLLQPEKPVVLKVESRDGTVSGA
Chain of Cytochrome P450 2C19 (P33261 whole entry): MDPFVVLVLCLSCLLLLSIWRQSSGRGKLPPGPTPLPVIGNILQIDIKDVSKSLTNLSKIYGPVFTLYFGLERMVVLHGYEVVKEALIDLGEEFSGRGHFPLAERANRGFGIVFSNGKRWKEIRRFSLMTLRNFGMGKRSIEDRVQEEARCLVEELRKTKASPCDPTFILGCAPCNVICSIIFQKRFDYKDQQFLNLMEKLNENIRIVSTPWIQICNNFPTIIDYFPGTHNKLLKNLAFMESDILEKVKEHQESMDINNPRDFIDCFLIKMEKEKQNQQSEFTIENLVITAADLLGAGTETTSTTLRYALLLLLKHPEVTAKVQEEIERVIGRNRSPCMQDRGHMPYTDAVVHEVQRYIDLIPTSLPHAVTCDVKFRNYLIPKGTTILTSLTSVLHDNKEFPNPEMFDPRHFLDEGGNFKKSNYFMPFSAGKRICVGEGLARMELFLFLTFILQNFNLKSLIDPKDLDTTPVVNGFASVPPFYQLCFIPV
Chain of hERG (KCNH2) (Q12809 whole entry): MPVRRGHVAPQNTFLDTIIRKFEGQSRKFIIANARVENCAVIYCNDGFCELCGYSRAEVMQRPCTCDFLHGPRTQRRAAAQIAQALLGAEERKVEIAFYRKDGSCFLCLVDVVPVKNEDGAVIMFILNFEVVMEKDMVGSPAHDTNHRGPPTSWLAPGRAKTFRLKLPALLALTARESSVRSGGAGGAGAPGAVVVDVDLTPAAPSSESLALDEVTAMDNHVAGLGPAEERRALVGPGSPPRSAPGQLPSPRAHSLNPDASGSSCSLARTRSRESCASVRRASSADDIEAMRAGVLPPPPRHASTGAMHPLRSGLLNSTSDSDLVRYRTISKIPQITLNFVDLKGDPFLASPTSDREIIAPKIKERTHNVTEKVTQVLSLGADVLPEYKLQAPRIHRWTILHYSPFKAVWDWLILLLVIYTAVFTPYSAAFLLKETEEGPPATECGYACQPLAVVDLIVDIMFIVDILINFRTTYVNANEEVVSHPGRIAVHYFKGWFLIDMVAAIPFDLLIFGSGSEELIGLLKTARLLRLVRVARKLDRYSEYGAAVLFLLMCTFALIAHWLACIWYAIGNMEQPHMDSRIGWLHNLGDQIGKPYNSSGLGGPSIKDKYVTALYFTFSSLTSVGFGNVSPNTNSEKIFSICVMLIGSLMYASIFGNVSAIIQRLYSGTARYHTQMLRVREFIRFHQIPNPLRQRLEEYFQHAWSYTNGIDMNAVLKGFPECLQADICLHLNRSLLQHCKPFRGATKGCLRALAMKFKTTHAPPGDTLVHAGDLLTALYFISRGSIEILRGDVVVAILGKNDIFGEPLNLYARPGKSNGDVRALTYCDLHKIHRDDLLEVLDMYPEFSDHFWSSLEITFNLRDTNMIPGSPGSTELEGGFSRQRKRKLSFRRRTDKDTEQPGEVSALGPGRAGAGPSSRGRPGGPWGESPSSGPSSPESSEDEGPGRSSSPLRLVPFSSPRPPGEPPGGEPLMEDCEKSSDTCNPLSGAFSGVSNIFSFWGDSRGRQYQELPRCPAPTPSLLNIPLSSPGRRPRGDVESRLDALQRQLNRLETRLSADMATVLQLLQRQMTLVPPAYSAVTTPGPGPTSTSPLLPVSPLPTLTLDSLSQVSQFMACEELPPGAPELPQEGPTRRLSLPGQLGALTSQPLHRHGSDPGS
Chain of Cytochrome P450 2C9 (P11712 whole entry): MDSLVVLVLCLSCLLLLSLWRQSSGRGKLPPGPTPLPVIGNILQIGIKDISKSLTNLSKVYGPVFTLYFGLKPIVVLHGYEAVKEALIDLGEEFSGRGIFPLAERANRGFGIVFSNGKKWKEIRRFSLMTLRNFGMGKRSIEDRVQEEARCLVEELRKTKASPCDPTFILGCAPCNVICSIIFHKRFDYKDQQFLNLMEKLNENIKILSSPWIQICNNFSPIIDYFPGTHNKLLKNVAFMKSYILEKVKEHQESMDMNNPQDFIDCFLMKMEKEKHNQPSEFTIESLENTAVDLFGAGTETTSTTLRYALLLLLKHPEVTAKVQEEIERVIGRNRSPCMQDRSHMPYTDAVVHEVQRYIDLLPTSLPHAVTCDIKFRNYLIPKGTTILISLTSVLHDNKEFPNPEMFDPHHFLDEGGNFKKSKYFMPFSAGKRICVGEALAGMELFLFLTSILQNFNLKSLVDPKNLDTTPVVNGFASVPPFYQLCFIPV
Chain of Cytochrome P450 2D6 (P10635 whole entry): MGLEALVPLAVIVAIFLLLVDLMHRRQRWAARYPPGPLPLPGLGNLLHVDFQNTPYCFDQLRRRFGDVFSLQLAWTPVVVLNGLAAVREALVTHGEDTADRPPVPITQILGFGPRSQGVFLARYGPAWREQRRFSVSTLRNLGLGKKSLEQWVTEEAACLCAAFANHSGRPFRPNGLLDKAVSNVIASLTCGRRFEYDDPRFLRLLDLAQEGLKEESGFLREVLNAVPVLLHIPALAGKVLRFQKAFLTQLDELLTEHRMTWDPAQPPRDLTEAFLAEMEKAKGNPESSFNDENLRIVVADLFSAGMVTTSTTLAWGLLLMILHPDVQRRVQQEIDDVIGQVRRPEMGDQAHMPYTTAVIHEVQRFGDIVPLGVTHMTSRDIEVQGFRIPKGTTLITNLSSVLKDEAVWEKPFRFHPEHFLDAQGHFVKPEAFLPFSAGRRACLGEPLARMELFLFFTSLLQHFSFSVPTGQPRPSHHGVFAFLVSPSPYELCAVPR

With `Cc1cc(C)cc(C(N=[N+]=[N-])c2nc(SC(C)C)[nH]c(=O)c2C)c1` (centres undefined) as the molecule, how does the EC50 [1] read?
The EC50 was 7.88 µM.

What about the IC50 [2] of the same molecule?
Its IC50 is 0.08 µM.

And the IC50 [3]?
The IC50 was greater than 50 µM.

What about the EC50 [4] of the same molecule?
The EC50 was 0.26 µM.

What about the IC50 [5] of the same molecule?
The IC50 was 27.1 µM.

And the EC50 [6]?
The EC50 was 2.51 µM.

And the IC50 [7]?
The IC50 was greater than 50 µM.

And the Activity [8]?
Its Activity is “Non-Toxic”.

What about the Activity [9] of the same molecule?
The Activity was “Non-Toxic”.

What about the EC50 [10] of the same molecule?
The EC50 was 0.053 µM.

And the IC50 [11]?
The IC50 was 35.8 µM.

What about the IC50 [12] of the same molecule?
Its IC50 is greater than 50 µM.

What about the Activity [13] of the same molecule?
The Activity was “Non-Toxic”.

What about the EC50 [14] of the same molecule?
The EC50 was 1.05 µM.

What about the Activity [15] of the same molecule?
The Activity was “Non-Toxic”.

And the Activity [16]?
Its Activity is “Non-Toxic”.

What about the Activity [17] of the same molecule?
The Activity was “Non-Toxic”.

And the IC50 [18]?
The IC50 was greater than 50 µM.

And the selectivity ratio [19]?
The selectivity ratio was greater than 6820.

And the EC50 [20]?
The EC50 was 203 µM.

What about the inhibition at 40 µM [21] of the same molecule?
Its inhibition at 40 µM is 41.4%.

What about the CC50 [22] of the same molecule?
The CC50 was greater than 364 µM.

And the Activity [23]?
Its Activity is “Non-Toxic”.

What about the EC50 [24] of the same molecule?
Its EC50 is 2.28 µM.
